Reference: PubChem BioAssay (NCI)
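A five-concentration, 48-hour dose response in 96-well plates underlies each endpoint, interpolated linearly between surrounding concentrations. GI50 = concentration required for 50% inhibition of growth. The concentration for full growth arrest is given as TGI.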

Legend:
Test in all cases: growth of human tumour cells (NCI), 48 h
[1] = test system: 786-0 renal
[2] = test system: A498 renal
[3] = test system: A549 NSCLC
[4] = test system: ACHN renal
[5] = test system: BT-549 breast
[6] = test system: CAKI-1 renal
[7] = test system: CCRF-CEM leukemia
[8] = test system: COLO 205 colon
[9] = test system: DU-145 prostate
[10] = test system: EKVX NSCLC
[11] = test system: HCC-2998 colon
[12] = test system: HCT-116 colon
[13] = test system: HCT-15 colon
[14] = test system: HL-60(TB) leukemia
[15] = test system: HOP-62 NSCLC
[16] = test system: HOP-92 NSCLC
[17] = test system: HS 578T breast
[18] = test system: HT29 colon
[19] = test system: IGROV1 ovarian
[20] = test system: LOX IMVI melanoma
[21] = test system: M14 melanoma
[22] = test system: MALME-3M melanoma
[23] = test system: MCF7 breast
[24] = test system: MDA-MB-231 breast
[25] = test system: MDA-MB-435
[26] = test system: MDA-MB-468 breast
[27] = test system: MOLT-4 leukemia
[28] = test system: NCI-H226 lung
[29] = test system: NCI-H23 lung
[30] = test system: NCI-H460 lung
[31] = test system: NCI-H522 lung
[32] = test system: NCI/ADR-RES ovarian
[33] = test system: OVCAR-3 ovarian
[34] = test system: OVCAR-4 ovarian
[35] = test system: OVCAR-5 ovarian
[36] = test system: OVCAR-8 ovarian
[37] = test system: PC-3 prostate
[38] = test system: RPMI-8226 leukemia
[39] = test system: RXF 393 renal
[40] = test system: SF-268 CNS
[41] = test system: SF-295 CNS
[42] = test system: SF-539 CNS
[43] = test system: SK-MEL-2 melanoma
[44] = test system: SK-MEL-28 melanoma
[45] = test system: SK-MEL-5 melanoma
[46] = test system: SK-OV-3 ovarian
[47] = test system: SN12C renal
[48] = test system: SNB-19 CNS
[49] = test system: SNB-75 CNS
[50] = test system: SR leukemia
[51] = test system: TK-10 renal
[52] = test system: U251 CNS
[53] = test system: UACC-257 melanoma
[54] = test system: UACC-62 melanoma
[55] = test system: UO-31 renal

Question: How did the GI50 [1] turn out when `COc1ccc2c(c1)c(-c1cc(N)n3nc(-c4c[nH]c5ccccc45)cc3n1)cn2C` was run?
Answer: 1610 nM

Question: What about the TGI [1] of the same compound?
Answer: 3 µM

Question: And the GI50 [2]?
Answer: 14 µM

Question: And the TGI [2]?
Answer: 27.6 µM

Question: What about the GI50 [3] of the same compound?
Answer: 1860 nM

Question: What about the TGI [3] of the same compound?
Answer: 3.7 µM

Question: What about the GI50 [4] of the same compound?
Answer: 1700 nM

Question: What about the TGI [4] of the same compound?
Answer: 3.1 µM

Question: And the GI50 [5]?
Answer: 12.8 µM

Question: And the TGI [5]?
Answer: 25.6 µM

Question: What about the GI50 [6] of the same compound?
Answer: 1820 nM

Question: And the TGI [6]?
Answer: 3.52 µM

Question: And the GI50 [7]?
Answer: 2140 nM

Question: And the TGI [7]?
Answer: 5.42 µM

Question: And the GI50 [8]?
Answer: 2020 nM

Question: What about the TGI [8] of the same compound?
Answer: 3.83 µM

Question: And the GI50 [9]?
Answer: 3.29 µM

Question: What about the TGI [9] of the same compound?
Answer: 10.2 µM

Question: What about the GI50 [10] of the same compound?
Answer: 1700 nM

Question: What about the TGI [10] of the same compound?
Answer: 3.63 µM

Question: And the GI50 [11]?
Answer: 1630 nM

Question: What about the TGI [11] of the same compound?
Answer: 3.04 µM

Question: What about the GI50 [12] of the same compound?
Answer: 1720 nM

Question: What about the TGI [12] of the same compound?
Answer: 3.09 µM

Question: And the GI50 [13]?
Answer: 1310 nM

Question: What about the TGI [13] of the same compound?
Answer: 2750 nM

Question: What about the GI50 [14] of the same compound?
Answer: 1760 nM

Question: And the TGI [14]?
Answer: 3.78 µM

Question: What about the GI50 [15] of the same compound?
Answer: 2020 nM

Question: What about the TGI [15] of the same compound?
Answer: 3.92 µM

Question: What about the GI50 [16] of the same compound?
Answer: 1870 nM

Question: And the TGI [16]?
Answer: 3.86 µM

Question: And the GI50 [17]?
Answer: 3.11 µM

Question: And the TGI [17]?
Answer: 17.6 µM

Question: And the GI50 [18]?
Answer: 1770 nM

Question: And the TGI [18]?
Answer: 3.47 µM

Question: And the GI50 [19]?
Answer: 2030 nM

Question: And the TGI [19]?
Answer: 3.88 µM

Question: What about the GI50 [20] of the same compound?
Answer: 1680 nM

Question: What about the TGI [20] of the same compound?
Answer: 3.04 µM

Question: And the GI50 [21]?
Answer: 1720 nM

Question: And the TGI [21]?
Answer: 3.25 µM

Question: And the GI50 [22]?
Answer: 1790 nM

Question: What about the TGI [22] of the same compound?
Answer: 3.18 µM

Question: And the GI50 [23]?
Answer: 1680 nM

Question: And the TGI [23]?
Answer: 3.35 µM

Question: What about the GI50 [24] of the same compound?
Answer: 2070 nM

Question: And the TGI [24]?
Answer: 3.65 µM

Question: And the GI50 [25]?
Answer: 1830 nM

Question: And the TGI [25]?
Answer: 3.54 µM

Question: What about the GI50 [26] of the same compound?
Answer: 1360 nM

Question: What about the TGI [26] of the same compound?
Answer: 2.69 µM

Question: What about the GI50 [27] of the same compound?
Answer: 2050 nM

Question: And the TGI [27]?
Answer: 5.73 µM

Question: What about the GI50 [28] of the same compound?
Answer: 2130 nM

Question: And the TGI [28]?
Answer: 5.11 µM

Question: What about the GI50 [29] of the same compound?
Answer: 1720 nM

Question: And the TGI [29]?
Answer: 3.39 µM

Question: And the GI50 [30]?
Answer: 2230 nM

Question: And the TGI [30]?
Answer: 5.03 µM

Question: What about the GI50 [31] of the same compound?
Answer: 1780 nM

Question: What about the TGI [31] of the same compound?
Answer: 3.5 µM

Question: And the GI50 [32]?
Answer: 2080 nM

Question: What about the TGI [32] of the same compound?
Answer: 5.07 µM

Question: And the GI50 [33]?
Answer: 2020 nM

Question: What about the TGI [33] of the same compound?
Answer: 4.28 µM

Question: And the GI50 [34]?
Answer: 2420 nM

Question: And the TGI [34]?
Answer: 5.93 µM

Question: And the GI50 [35]?
Answer: 2050 nM

Question: What about the TGI [35] of the same compound?
Answer: 4.08 µM

Question: And the GI50 [36]?
Answer: 2050 nM

Question: And the TGI [36]?
Answer: 4.77 µM

Question: And the GI50 [37]?
Answer: 2560 nM

Question: What about the TGI [37] of the same compound?
Answer: 8.61 µM

Question: And the GI50 [38]?
Answer: 2370 nM

Question: What about the TGI [38] of the same compound?
Answer: 5.74 µM

Question: What about the GI50 [39] of the same compound?
Answer: 1500 nM

Question: And the TGI [39]?
Answer: 2900 nM

Question: What about the GI50 [40] of the same compound?
Answer: 2350 nM

Question: And the TGI [40]?
Answer: 5.48 µM

Question: And the GI50 [41]?
Answer: 1580 nM

Question: And the TGI [41]?
Answer: 3.01 µM

Question: And the GI50 [42]?
Answer: 1630 nM

Question: And the TGI [42]?
Answer: 2980 nM

Question: And the GI50 [43]?
Answer: 1860 nM

Question: What about the TGI [43] of the same compound?
Answer: 3.96 µM

Question: And the GI50 [44]?
Answer: 1730 nM

Question: What about the TGI [44] of the same compound?
Answer: 3.11 µM

Question: What about the GI50 [45] of the same compound?
Answer: 1680 nM

Question: And the TGI [45]?
Answer: 3.04 µM

Question: And the GI50 [46]?
Answer: 2580 nM

Question: And the TGI [46]?
Answer: 6.43 µM

Question: And the GI50 [47]?
Answer: 1870 nM

Question: What about the TGI [47] of the same compound?
Answer: 3.81 µM

Question: And the GI50 [48]?
Answer: 2610 nM

Question: What about the TGI [48] of the same compound?
Answer: 6.31 µM

Question: And the GI50 [49]?
Answer: 1760 nM

Question: And the TGI [49]?
Answer: 3.8 µM

Question: What about the GI50 [50] of the same compound?
Answer: 1430 nM

Question: What about the TGI [50] of the same compound?
Answer: 6.4 µM

Question: What about the GI50 [51] of the same compound?
Answer: 1760 nM

Question: What about the TGI [51] of the same compound?
Answer: 3.34 µM

Question: And the GI50 [52]?
Answer: 1640 nM

Question: And the TGI [52]?
Answer: 3.21 µM

Question: And the GI50 [53]?
Answer: 1840 nM

Question: What about the TGI [53] of the same compound?
Answer: 3.43 µM

Question: What about the GI50 [54] of the same compound?
Answer: 1800 nM

Question: What about the TGI [54] of the same compound?
Answer: 3.2 µM

Question: What about the GI50 [55] of the same compound?
Answer: 1610 nM

Question: What about the TGI [55] of the same compound?
Answer: 3.12 µM

Question: How did the GI50 [26] turn out when `COc1cc(C)c2sc3ccccc3c(=O)c2c1NCCN(C)C` was run?
Answer: 2150 nM

Question: What about the TGI [26] of the same compound?
Answer: 5.06 µM

Question: What does the source list for `COc1ccc(C(=O)c2sc3nc(-c4cccs4)ccc3c2N)cc1OC`?
Answer: GI50 [26]: 1870 nM; TGI [26]: > 100 µM
